# Patent publication US10189813B2, “Formylated N-heterocyclic derivatives as FGFR4 inhibitors” (NOVARTIS AG, priority 2015, dated 2019)
# Read-outs that look alike come from different tables or passages of the source.
# Experiments:
# [1] = molecular target: T1, FGFR4 (GST-FGFR4(388-802)) (Homo sapiens, UniProt P22455); assay: In-vitro biochemical kinase assay for FGFR4 (Caliper mobility shift); settings: 60 minutes at 30° C.
# T1 construct: GST-FGFR4(388-802); GST (N); made in house; host or cells: insect cells
# Protocol: In-Vitro Biochemical Kinase Assays for FGFR4
# All assays were performed in 384 well microtiter plates. Each assay plate contained 8-point serial dilutions for 40 test compounds, as well as four 8-point serial dilutions of staurosporine as reference compound, plus 16 high and 16 low controls.
# (§1) Liquid handling and incubation steps were done on an Innovadyne Nanodrop Express equipped with a robotic arm (Thermo CatX, Caliper Twister II) and an incubator (Liconic STX40, Thermo Cytomat 2C450). The assay plates were prepared by addition of 50 nI per well of compound solution in 90% DMSO. […] Kinase reactions were incubated at 30° C. for 60 minutes and subsequently terminated by addition of 16 μl per well of stop solution (100 mM HEPES pH 7.5, 5% DMSO, 0.1% Caliper coating reagent, 10 mM EDTA, and 0.015% Brij35). Plates with terminated kinase reactions were transferred to the Caliper LC3000 workstations for reading. Phosphorylated and unphosphorylated peptides were separated using the Caliper microfluidic mobility shift technology. Briefly, samples from terminated kinase reactions were applied to the chip. Analytes are transported through the chip by constant buffer flow and the migration of the substrate peptide is monitored by the fluorescence signal of its label. Phosphorylated peptide (product) and unphosphorylated peptide (substrate) are separated in an electric field by their charge/mass ratio. Kinase activities were calculated from the amounts of formed phospho-peptide. IC50 values were determined from percent inhibition values at different compound concentrations by non-linear regression analysis.
# Preparation of Compound Dilutions
# Test compounds were dissolved in DMSO (10 mM) and transferred into 1.4 mL flat bottom or V-shaped Matrix tubes carrying a unique 2D matrix. The stock solutions were stored at […] if not used immediately. For the test procedure the vials were defrosted and identified by a scanner whereby a working sheet was generated that guided the subsequent working steps.
# Compound dilutions were made in 96 well plates. This format enabled the assay of maximally 40 individual test compounds at 8 concentrations (single points) including 4 reference compounds. The dilution protocol included the production of “pre-dilution plates”, “master plates” and “assay plates”.
# 96 polypropylene well plates were used as pre-dilution plates. A total of 4 pre-dilution plates were prepared including 10 test compounds each on the plate positions A1-A10, one standard compound at A11 and one DMSO control at A12. All dilution steps were done on a HamiltonSTAR robot.
# These plates were used directly for the assay which was performed in a total volume of 9.05 μL.
# FGFR1 (407-822) = molecular target: T2, FGFR1 (407-822) (Homo sapiens, UniProt P11362); assay: In vitro biochemical assay for FGFR1
# T2 construct: FGFR1 (407-822)
# Protocol: as §1
# (§2) In vitro biochemical assays for FGFR1 (407-822), FGFR2 (406-821) and FGFR3 (411-806) were conducted in a similar manner to the in vitro biochemical assay for FGFR4 described above, using the indicated portions of the kinase domains. The following examples all produced IC50 values >10000 nM in the biochemical FGFR1, FGFR2 and FGFR3 assays: 2, 3, 4, 11, 13, 16, 17, 18, 20, 28, 30.
# FGFR3 (411-806) = molecular target: T3, FGFR3 (411-806) (Homo sapiens, UniProt P22607); assay: In vitro biochemical assay for FGFR3
# T3 construct: FGFR3 (411-806)
# Protocol: as §1, §2
# FGFR2 (406-821) = molecular target: T4, FGFR2 (406-821) (Homo sapiens, UniProt P21802); assay: In vitro biochemical assay for FGFR2
# T4 construct: FGFR2 (406-821)
# Protocol: as §1, §2
# [2] = molecular target: BaF3-Tel-FGFR4 cells (TEL fused to cytoplasmic domain of FGFR4) (Homo sapiens, UniProt P22455); assay: In vitro cellular kinase assay for FGFR4 (BaF3-Tel-FGFR4, MSD capture ELISA of tyrosine phosphorylation); settings: 1 hour incubation
# [3] = tested on: HuH-7 hepatocellular carcinoma cells; assay: CellTiter Glo (CTG) proliferation/viability assay; assay type: cell-based; settings: HuH-7 cells, 3 days, half-maximal growth inhibition (GI50), read-out: HUH7 proliferation CTG
# Protocol: CellTiter Glo (CTG) Assay:
# The functional effect of compounds on cell proliferation is assessed using HuH-7 hepatocellular carcinoma cells obtained from the Japanese Collection of Research Bioresources Cell Bank (Cat# JCRB0403) and cultured in the vendor-recommended medium (DMEM high glucose (Amimed Cat#1-26F01-I), 10% foetal calf serum (Invitrogen Cat#16140-071), 1 mM sodium pyruvate (Amimed Cat#5-60F00-H), 1× Penicillin/Streptomycin (Amimed Cat#4-01F00-H)) at 37° C. in a humidified 5% CO2 incubator. Compound-mediated suppression of cell proliferation/viability is assessed by quantification of cellular ATP levels using the CellTiter-Glo (CTG) reagent (Promega, Cat# G7573). Briefly, cells are seeded at 3′000 cells/well/80 μl fresh medium into tissue-culture-treated 96-well plates (Costar Cat#3904), followed by addition of 20 μl medium containing compound dilutions at 5-fold their final intended concentration. Dose-response effects are assessed by 3-fold serial dilutions of the test compound, starting at 10 μM. Following incubation of the cells for 3 days at 37° C. and 5% CO2, the effect of inhibitors on cell viability is quantified following addition of 50 μl CTG and luminescence measurement (integration time: 500 ms) as per vendor manual, using a correspondingly equipped multi-mode plate reader (M200Pro, TECAN, Switzerland). For data analysis, the assay background value determined in wells containing medium, but no cells, is subtracted from all data points. To enable differentiation of cytotoxic from cytostatic compounds, the number of viable cells is assessed relative to that observed at the time of compound addition using a separate cell plate (day 0). The effect of a particular test compound concentration on cell proliferation/viability is expressed as percentage of the background- and day 0-corrected luminescence reading obtained for cells treated with vehicle only (DMSO, 0.1% f.c.), which is set as 100%, whereas the luminescence reading for wells containing medium only, but no cells, is set as −100%. Compound concentrations leading to half-maximal growth inhibition (GI50) are determined using standard four parameter curve fitting (XLfit 5.2., IDBS, UK).
# T3 sequence (P22607 411-806): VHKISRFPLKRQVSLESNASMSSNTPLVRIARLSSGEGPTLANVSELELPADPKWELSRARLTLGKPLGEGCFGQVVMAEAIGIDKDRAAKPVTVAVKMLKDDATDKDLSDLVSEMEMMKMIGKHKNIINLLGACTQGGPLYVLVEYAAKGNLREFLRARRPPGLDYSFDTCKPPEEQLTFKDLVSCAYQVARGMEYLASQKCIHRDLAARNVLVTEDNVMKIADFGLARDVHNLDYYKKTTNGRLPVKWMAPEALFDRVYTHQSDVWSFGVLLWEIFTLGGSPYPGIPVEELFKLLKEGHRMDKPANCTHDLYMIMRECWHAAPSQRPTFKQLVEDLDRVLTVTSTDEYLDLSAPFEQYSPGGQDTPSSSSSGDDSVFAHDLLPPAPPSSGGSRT
# Sequence of BaF3-Tel-FGFR4 cells (TEL fused to cytoplasmic domain of FGFR4) (P22455 with tags, fused parts or gaps): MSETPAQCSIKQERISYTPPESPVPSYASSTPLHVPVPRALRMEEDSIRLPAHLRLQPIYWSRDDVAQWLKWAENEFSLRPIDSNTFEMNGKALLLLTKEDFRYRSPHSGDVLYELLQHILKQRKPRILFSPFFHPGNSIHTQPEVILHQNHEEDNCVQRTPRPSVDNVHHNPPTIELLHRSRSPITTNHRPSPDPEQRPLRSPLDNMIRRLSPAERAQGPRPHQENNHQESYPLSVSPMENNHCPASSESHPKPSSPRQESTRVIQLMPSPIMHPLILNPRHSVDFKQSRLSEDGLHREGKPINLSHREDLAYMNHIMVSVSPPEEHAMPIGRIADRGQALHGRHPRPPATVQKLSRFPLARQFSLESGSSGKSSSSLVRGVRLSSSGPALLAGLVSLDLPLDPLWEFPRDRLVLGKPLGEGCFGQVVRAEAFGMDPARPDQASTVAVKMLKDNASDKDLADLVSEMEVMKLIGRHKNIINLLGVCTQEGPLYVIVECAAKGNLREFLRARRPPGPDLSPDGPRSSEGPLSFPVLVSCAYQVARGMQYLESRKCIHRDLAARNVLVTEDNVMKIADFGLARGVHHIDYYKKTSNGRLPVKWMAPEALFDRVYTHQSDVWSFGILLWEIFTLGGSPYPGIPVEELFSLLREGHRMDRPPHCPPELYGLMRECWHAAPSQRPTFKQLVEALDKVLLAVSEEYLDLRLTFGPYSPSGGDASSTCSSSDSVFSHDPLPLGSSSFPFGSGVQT
# T4 sequence (P21802 406-821): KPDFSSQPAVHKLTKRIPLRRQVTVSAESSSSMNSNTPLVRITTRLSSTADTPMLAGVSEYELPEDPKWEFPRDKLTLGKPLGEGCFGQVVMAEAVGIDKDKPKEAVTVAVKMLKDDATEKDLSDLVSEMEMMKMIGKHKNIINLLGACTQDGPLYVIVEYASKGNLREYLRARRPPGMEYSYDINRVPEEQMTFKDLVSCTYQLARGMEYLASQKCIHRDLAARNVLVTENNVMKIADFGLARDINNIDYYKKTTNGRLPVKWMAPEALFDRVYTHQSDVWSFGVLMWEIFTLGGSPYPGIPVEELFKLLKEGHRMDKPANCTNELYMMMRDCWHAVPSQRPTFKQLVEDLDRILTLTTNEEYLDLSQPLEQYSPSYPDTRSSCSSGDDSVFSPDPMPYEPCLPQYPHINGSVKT
# T1 sequence (P22455 388-802): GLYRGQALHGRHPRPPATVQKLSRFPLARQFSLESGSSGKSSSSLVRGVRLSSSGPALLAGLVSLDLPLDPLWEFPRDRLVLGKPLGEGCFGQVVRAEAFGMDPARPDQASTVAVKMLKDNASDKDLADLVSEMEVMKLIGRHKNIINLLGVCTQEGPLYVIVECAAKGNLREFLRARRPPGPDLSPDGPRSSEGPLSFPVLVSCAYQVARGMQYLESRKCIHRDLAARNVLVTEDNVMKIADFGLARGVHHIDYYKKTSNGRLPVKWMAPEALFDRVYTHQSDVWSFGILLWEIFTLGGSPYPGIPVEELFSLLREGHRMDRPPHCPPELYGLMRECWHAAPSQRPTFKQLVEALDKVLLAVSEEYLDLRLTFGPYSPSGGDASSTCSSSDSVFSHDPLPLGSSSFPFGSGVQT
# T2 sequence (P11362 407-822): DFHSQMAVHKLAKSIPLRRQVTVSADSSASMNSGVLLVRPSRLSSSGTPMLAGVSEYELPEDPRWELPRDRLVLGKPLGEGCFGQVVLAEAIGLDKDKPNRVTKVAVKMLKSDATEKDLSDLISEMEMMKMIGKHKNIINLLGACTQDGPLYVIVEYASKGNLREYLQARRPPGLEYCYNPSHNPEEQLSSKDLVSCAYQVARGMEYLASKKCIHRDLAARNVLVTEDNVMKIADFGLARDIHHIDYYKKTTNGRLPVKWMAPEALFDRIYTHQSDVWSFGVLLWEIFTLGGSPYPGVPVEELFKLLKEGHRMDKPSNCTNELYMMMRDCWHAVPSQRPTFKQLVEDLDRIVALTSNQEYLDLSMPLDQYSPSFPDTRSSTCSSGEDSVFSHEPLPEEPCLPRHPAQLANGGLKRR
Structure (SMILES),IC50 [1],IC50 (FGFR1 (407-822)),IC50 (FGFR3 (411-806)),IC50 (FGFR2 (406-821)),IC50 [2],"IC50 ([3]; Homo sapiens, Huh-7, 72 h)",IC50 [3]
"COCCNc1cc(NC(=O)N(CC2CCOC2)c2cccc(C=O)n2)ncc1C#N (racemic) [Example 4, 3-(5-cyano-4-((2-methoxyethyl)amino)pyridin-2-yl)-1-(6-formylpyridin-2-yl)-1-((tetrahydrofuran-3-yl)methyl)urea]",1.9 nM,> 10000 nM,> 10000 nM,> 10000 nM,268 nM,–,–
"COCCNc1cc(NC(=O)N(CC2CCOC2)c2ccc(CO)c(C=O)n2)ncc1C#N (racemic) [Example 5, 3-(5-cyano-4-((2-methoxyethyl)amino)pyridin-2-yl)-1-(6-formyl-5-(hydroxymethyl)pyridin-2-yl)-1-((tetrahydrofuran-3-yl)methyl)urea]",66 nM,–,–,–,234 nM,–,–
"COCCNc1cc(NC(=O)N(C[C@@H]2CCOC2)c2cccc(C=O)n2)ncc1C#N (single isomer, unassigned) [Example 6]",4.7 nM,–,–,–,140 nM,–,–
"COCCNc1cc(NC(=O)N(C[C@H]2CCOC2)c2cccc(C=O)n2)ncc1C#N (single isomer, unassigned) [Example 7]",5.1 nM,–,–,–,223 nM,–,–
"N#Cc1ccc(Nc2ccccc2-c2cccc(C=O)n2)nc1 [Example 1, 6-((2-(6-formylpyridin-2-yl)phenyl)amino)nicotinonitrile]",330 nM,–,–,–,–,–,–
"COCCNc1cc(NC(=O)N(C)c2cccc(C=O)n2)ncc1C#N [Example 2, 3-(5-cyano-4-((2-methoxyethyl)amino)pyridin-2-yl)-1-(6-formylpyridin-2-yl)-1-methylurea]",–,> 10000 nM,> 10000 nM,> 10000 nM,–,–,–
"COCCNc1cc(NC(=O)N(CCOC)c2cccc(C=O)n2)ncc1C#N [Example 3, 3-(5-cyano-4-((2-methoxyethyl)amino)pyridin-2-yl)-1-(6-formylpyridin-2-yl)-1-(2-methoxyethyl)urea]",–,> 10000 nM,> 10000 nM,> 10000 nM,–,–,–
"CC(C)Oc1cc(NC(=O)N(C)c2ccc(C(=O)O)c(C=O)n2)ncc1C#N [Example 8, 6-(3-(5-cyano-4-isopropoxypyridin-2-yl)-1-methylureido)-2-formylnicotinic acid]",1.6 nM,–,–,–,737 nM,–,–
"CCN(C(=O)Nc1cc(NC(C)C)c(C#N)cn1)c1ccc(-c2cnn(C)c2)c(C=O)n1 [Example 11, 3-(5-cyano-4-(isopropylamino)pyridin-2-yl)-1-ethyl-1-(6-formyl-5-(1-methyl-1H-pyrazol-4-yl)pyridin-2-yl)urea]",5.6 nM,> 10000 nM,> 10000 nM,> 10000 nM,17 nM,–,–
"CCN(C(=O)Nc1cc(OC(C)C)c(C#N)cn1)c1ccc(-c2cnn(C)c2)c(C=O)n1 [Example 12, 3-(5-cyano-4-isopropoxypyridin-2-yl)-1-ethyl-1-(6-formyl-5-(1-methyl-1H-pyrazol-4-yl)pyridin-2-yl)urea]",8.6 nM,–,–,–,33 nM,2140 nM,–
"CC(C)Nc1cc(NC(=O)N(C)c2ccc(-c3cnn(C)c3)c(C=O)n2)ncc1C#N [Example 14, 3-(5-cyano-4-(isopropylamino)pyridin-2-yl)-1-(6-formyl-5-(1-methyl-1H-pyrazol-4-yl)pyridin-2-yl)-1-methylurea]",3.6 nM,–,–,–,–,–,–
"CN(C(=O)Nc1ccc(C#N)cn1)c1ccc(CN2CCCC2=O)c(C=O)n1 [Example 19, 3-(5-cyanopyridin-2-yl)-1-(6-formyl-5-((2-oxopyrrolidin-1-yl)methyl)pyridin-2-yl)-1-methylurea]",78 nM,–,–,–,–,–,–

# Next, values leading:
IC50 [1],IC50 (FGFR1 (407-822)),IC50 (FGFR3 (411-806)),IC50 (FGFR2 (406-821)),IC50 [2],"IC50 ([3]; Homo sapiens, Huh-7, 72 h)",IC50 [3],Structure (SMILES)
17 nM,–,–,–,501 nM,> 3000 nM,–,"COC1CCN(Cc2ccc(N(C)C(=O)Nc3cc(OC(C)C)c(C#N)cn3)nc2C=O)C1 (racemic) [Example 26, 3-(5-cyano-4-isopropoxypyridin-2-yl)-1-(6-formyl-5-((3-methoxypyrrolidin-1-yl)methyl)pyridin-2-yl)-1-methylurea]"
4.8 nM,–,–,–,6.9 nM,878 nM,–,"CC(C)Oc1cc(NC(=O)N(C)c2ccc(CN3CCN(C)CC3=O)c(C=O)n2)ncc1C#N [Example 21, 3-(5-cyano-4-isopropoxypyridin-2-yl)-1-(6-formyl-5-((4-methyl-2-oxopiperazin-1-yl)methyl)pyridin-2-yl)-1-methylurea]"
5.7 nM,–,–,–,46 nM,> 3000 nM,1800 nM,"CN(C(=O)Nc1cc(NCC(C)(C)O)c(C#N)cn1)c1ccc(-c2cnn(C)c2)c(C=O)n1 [Example 22, 3-(5-cyano-4-((2-hydroxy-2-methylpropyl)amino)pyridin-2-yl)-1-(6-formyl-5-(1-methyl-1H-pyrazol-4-yl)pyridin-2-yl)-1-methylurea]"
0.7 nM,–,–,–,8.8 nM,118 nM,–,"CC(C)Oc1cc(NC(=O)N(C)c2ccc(CN3CCCC3=O)c(C=O)n2)ncc1C#N [Example 23, 3-(5-cyano-4-isopropoxypyridin-2-yl)-1-(6-formyl-5-((2-oxopyrrolidin-1-yl)methyl)pyridin-2-yl)-1-methylurea]"
6.3 nM,–,–,–,–,–,–,"CC(C)Oc1cc(NC(=O)N(C)c2ccc(-c3cnn(C)c3)c(C=O)n2)ncc1C#N [Example 25, 3-(5-cyano-4-isopropoxypyridin-2-yl)-1-(6-formyl-5-(1-methyl-1H-pyrazol-4-yl)pyridin-2-yl)-1-methylurea]"
340 nM,–,–,–,568 nM,> 3000 nM,–,"COCCNc1cc(Nc2nccn2-c2ccc(-c3cnn(C)c3)c(C=O)n2)ncc1C(F)(F)F [Example 27, 6-(2-((4-((2-methoxyethyl)amino)-5-(trifluoromethyl)pyridin-2-yl)amino)-1H-imidazol-1-yl)-3-(1-methyl-1H-pyrazol-4-yl)picolinaldehyde]"
250 nM,–,–,–,> 3000 nM,> 3000 nM,–,"CC(C)Oc1cc(NC(=O)N(C)c2ccc(CN3CCCC3)c(C=O)n2)ncc1C#N [Example 29, 3-(5-cyano-4-isopropoxypyridin-2-yl)-1-(6-formyl-5-(pyrrolidin-1-ylmethyl)pyridin-2-yl)-1-methylurea]"
